We go through 2 compounds from ChEMBL document CHEMBL1149094, “3-(4-Aroyl-1-methyl-1H-pyrrol-2-yl)-N-hydroxy-2-propenamides as a new class of synthetic histone deacetylase inhibitors. 3. Discovery of novel lead compounds through structure-based drug design and docking studies” (J Med Chem, 2004).

A word on the IC50: it is the concentration that inhibits the measured activity by half. A higher IC50 goes with lower potency. Broadly, the inhibition is the relative decrease from the control value, in per cent.

Molecules are shown by their SMILES.

The target in test [1] is T1, Histone deacetylase 1 (Mus musculus, UniProt O09106). Kind of test: Inhibition of mouse Histone deacetylase 1 (HDAC1) receptor.
T1 sequence (O09106 whole entry): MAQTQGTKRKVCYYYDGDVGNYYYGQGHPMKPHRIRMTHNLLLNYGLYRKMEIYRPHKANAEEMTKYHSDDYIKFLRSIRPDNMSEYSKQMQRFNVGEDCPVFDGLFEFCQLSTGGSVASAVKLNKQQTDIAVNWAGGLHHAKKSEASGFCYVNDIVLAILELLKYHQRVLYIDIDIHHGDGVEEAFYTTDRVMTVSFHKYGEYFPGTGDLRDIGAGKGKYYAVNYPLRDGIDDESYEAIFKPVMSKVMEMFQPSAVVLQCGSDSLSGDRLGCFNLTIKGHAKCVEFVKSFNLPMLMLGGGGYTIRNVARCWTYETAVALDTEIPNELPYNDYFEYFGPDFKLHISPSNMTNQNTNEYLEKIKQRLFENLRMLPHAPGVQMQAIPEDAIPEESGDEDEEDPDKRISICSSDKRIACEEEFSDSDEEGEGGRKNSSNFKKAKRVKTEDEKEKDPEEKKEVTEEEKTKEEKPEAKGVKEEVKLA
The target in test [2] is T1, Histone deacetylase 1. Kind of test: Inhibition of mouse HDAC1.
For test [3], the target named is T2, Histone deacetylase HD2 (Zea mays, UniProt Q94F81).
T2 sequence (Q94F81 whole entry): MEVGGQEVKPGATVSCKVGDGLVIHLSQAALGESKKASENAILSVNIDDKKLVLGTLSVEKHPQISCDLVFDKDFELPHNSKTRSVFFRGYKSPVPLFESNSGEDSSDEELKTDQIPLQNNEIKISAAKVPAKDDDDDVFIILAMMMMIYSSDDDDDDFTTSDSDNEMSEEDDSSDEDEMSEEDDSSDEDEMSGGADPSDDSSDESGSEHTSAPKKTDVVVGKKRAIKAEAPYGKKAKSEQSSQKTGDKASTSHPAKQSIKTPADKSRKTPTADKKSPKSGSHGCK
The test is described as follows: Inhibition of maize histone deacetylase 2.

Test [4] has as its target T3, Histone deacetylase HD2 (Zea mays) (UniProt Q94F81).
T3 sequence (whole entry): T2 sequence (Q94F81 whole entry)
Kind of test: Percent inhibition of maize histone deacetylase 2 receptor at a dose of 30 uM.

In test [5] the target is T2, Histone deacetylase HD2. The test is described as follows: Inhibition of maize Histone deacetylase 2.

As for `Cn1cc(/C=C/C(=O)NO)cc1C(=O)c1ccccc1`, the half-maximal inhibitory concentration (IC50) was 780 nM on Histone deacetylase 1 [1], 776 nM at Histone deacetylase 1 [2], 50 nM on Histone deacetylase HD2 [3] and 50.1 nM on Histone deacetylase HD2 [5]. In test [4], this compound registered an inhibition of 97%.
In the same order, the values of `Cn1c(/C=C/C(=O)NO)ccc1C(=O)c1ccccc1` are 250 nM, 229 nM, 280 nM, 251 nM and 95%.
